The record followed here is patent US5126356A, “Piperidine compounds” (Adir et Compagnie, priority 1989, dated 1992).

pIC50: −log10 of the molar value.

One experiment addresses Beta adrenergic β. The experiment is described as follows: Binding to neurotransmitter receptors: beta adrenergic ([3H] DHA). The following applies: read-out: K0.5.
The target in the next experiment is type L calcium channels. The experiment is described as follows: Binding: displacement of [3H] D888 at the Ca2+ channel. The following applies: read-out: K0.5 (50% of specifically fixed radioactivity displaced).
The test system of another experiment is beagle dogs. Description: Anti-ischaemic activity, Protocol 2: moderate coronary stenosis plus auricular pacing in anaesthetised beagle dogs. In kind it is in vivo, dog. The following applies: Pacing 2 minutes, 1 mg/kg i.v. How it is done:
The studies are carried out on beagle dogs weighing from 9 to 12 kg which have been anaesthetised with pentobarbital sodium 30 mg/kg i.v., intubated and ventilated, and subjected to a thoracotomy at the 5th left intercostal space.
An electromagnetic ring connected to a Gould SP 2202 electromagnetic flow meter is placed around the circumflex branch of the left coronary artery, and an inflatable balloon is placed just downstream of that ring for the production of coronary stenoses under the control of the coronary output.
Piezoelectric crystals (5 MHz) connected to a Triton sonomicrometer are implanted in the subendocardium of the left ventricular wall, in an area that is to become ischaemic, for measuring local myocardial contractility; epicardial electrodes are placed in the same area for recording the epicardial electrocardiogram.
Two electrodes are sewn at the right auricle in the region of the sinoauricular node for the protocols including pacing sequences. […]
Myocardial contractility is evaluated by the proportion of systolic shortening of the lengths of the segments between the piezoelectric crystals.
Hypokinesia in the ischaemic area is expressed as percentage variation relative to the contractility measured in the control period.
Modification of the epicardial ECG in the ischaemic area consists in raising the epicardial ST segment measured in millivolts (mV).

The next experiment concerns the target 5HT2 (Homo sapiens, UniProt P28223). Description: Binding to neurotransmitter receptors: 5HT2 ([3H] Ketanserine).

Chain of 5HT2 (P28223 whole entry, species assumed): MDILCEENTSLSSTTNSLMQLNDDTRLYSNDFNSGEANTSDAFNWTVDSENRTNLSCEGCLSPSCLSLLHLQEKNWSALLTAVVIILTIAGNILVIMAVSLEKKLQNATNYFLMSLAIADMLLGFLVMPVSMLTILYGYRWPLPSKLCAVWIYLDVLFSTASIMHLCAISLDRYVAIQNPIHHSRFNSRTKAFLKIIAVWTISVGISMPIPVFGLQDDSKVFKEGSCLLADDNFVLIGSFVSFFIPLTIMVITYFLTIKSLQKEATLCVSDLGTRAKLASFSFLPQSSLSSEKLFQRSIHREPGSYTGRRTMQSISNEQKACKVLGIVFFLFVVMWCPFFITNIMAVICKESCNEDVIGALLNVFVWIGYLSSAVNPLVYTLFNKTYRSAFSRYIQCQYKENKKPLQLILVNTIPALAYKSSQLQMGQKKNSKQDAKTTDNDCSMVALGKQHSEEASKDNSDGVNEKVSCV

For `COc1ccc(CSC2CCN(CC=Cc3ccccc3)CC2)c(OC)c1OC` [Example 1, 4-(2,3,4-trimethoxybenzylthio)-1-cinnamylpiperidine], the figures for the pIC50 on Beta adrenergic β, at type L calcium channels and at 5HT2 were 5.70, 5.89 and 6.00, respectively. Further, the “Epicardial ST delta mV” value in the experiment with beagle dogs (solvent +6.0) is recorded as “+0.5 mV”. The Contractility delta % in the experiment with beagle dogs (solvent -62.6) is -42.2%.
